Reference: US7985738B2, “Cytosine nucleoside analogs and isoflavones and uses thereof” (Institut National de la Recherche Scientifique, priority 2007, dated 2011)
“And” between values parts separate entries of the source, which are not always exact repeats. Identical values can stand only once.

Experiments:
[1] = tested on: L1210 murine lymphoid leukemic cells; assay: Inhibition/loss of clonogenicity in soft agar, L1210; format: cell-based
Procedure: (§1) Cell lines and drug exposure. Human myeloid (HL-60) and lymphoid (MOLT-3) leukemic cells were obtained from ATCC (ATCC #: CRL-1552; Manassas, Va. USA). MBA-MD-231 and Dld-1 cells were also used. Human cell lines were cultured in RPMI-1640 medium (Invitrogen, Burlington, Ontario) supplemented with 10% heat-inactivated fetal bovine serum (Wisent, St-Bruno, Quebec). The doubling times of HL-60 and MOLT-3 were 16-18 h and 23-24 h, respectively, whereas for both MBA-MD-231 and Dld-1 cells it was 24-27 h. The murine lymphoid leukemic cell line L1210 (ATCC #: CCL-219; Brandes et al., (1966). J Natl Cancer Inst. 37(4): 467-85) was cultured in RPMI-1640 with 5% heat-inactivated fetal calf serum and with 6 μM of 2-mercaptoethanol. The doubling time of the L1210 cells was about 10 h. From this cell line, a clone fully resistant to […], identified herein as L1210/ARAC, was generated after exposure of increasing doses of cytosine arabinoside for a period of 3 months (Schabel et al., (1984). Cancer Treat. Rep 67: 905-922). The doubling time of the L1210/ARAC cells was about 12 h. Human lung adenocarcinoma cells H2087, and Calu-6 non-small cell lung cancer cells, were obtained from ATCC (ATCC #: CRL-5922; Manassas, Va. USA) and cultured in DMEM and RPMI without HEPES, respectively. The cells were trypsinized with 0.25% Trypsin-EDTA (Invitrogen, Grand Island, N.Y.). The doubling time of the H2087 cells was about 35 h. Cell lines were incubated at 37° C. in 5% CO2 atmosphere.
(§2) Genistein (LC Laboratories, Woburn, Mass.) was dissolved in DMSO (Sigma, Oakville, Ontario) to prepare stock solutions of 2 and 20 mM and kept frozen at −20° C. until use. Decitabine (DAC, Dacogen™, 5-aza-2′-deoxycytidine) at 1000 μg/ml in PBS was kept at −80° C. Before each experiment, Decitabine was diluted at 1 μg/ml (for murine leukemic cell lines), 10 μg/ml (for human leukemic cells), or 100 μg/ml (for lung carcinoma cells) with sterile PBS and kept on ice until use.
Inhibition of clonogenicity. It is known that cancer cells form clones in soft agar (clonogenicity). Irreversible eradication of the clonogenicity of cancer stem cells is one of the objectives of chemotherapy since it is related to cell proliferation potential. Human and murine leukemic cell lines in log phase at 5×10^4 cells/ml were placed in tissue culture flasks and exposed to the drug combinations for 48 and 24 h respectively. […] After 7 d of incubation for murine cell lines or 15 d for human cell lines, the number of colonies (>50 cells) was counted. […] The experiments were repeated three times and expressed as mean±S.E.M.
(§3) Statistical analyses. […] The p value was evaluated accordingly to Tukey's method (Hastings, C et al. (1947). Ann. Math. Statist. 18,413-426). […]

[2] = tested on: L1210/ARAC leukemic cells; assay: Survival of CD2F1 mice bearing L1210/ARAC leukemia; format: in vivo; conditions: i.v. 10^4 L1210/ARAC cells, 0.5% genistein in diet and/or DAC 2 mg/kg 8 h i.v. infusion on day 1
Procedure: (§4) In vivo experiments. Male CD2F1 mice (24-28 g) were purchased from Taconic Biotechnology (Germantown, N.Y., USA). Mice were acclimatized to housing conditions at least 2 weeks before experiments. They received food and water ad libitum. For transplantation of leukemia cells in mice, intraperitonal (i.p.) injections of 10^4 L1210 or L1210/ARAC cells in RPMI-1640 medium were performed weekly into the CD2F1 mice. Seven days later, the ascetic fluid was obtained from the mice and a cell count of the leukemic cells was performed with a haemocytometer prior to subsequent transplantation. Mice were injected intravenously (i.v.) with 0.1 ml of L1210 or L1210/ARAC (10^4) cells. Control groups that received the control diet 2016 (Teklad Global 16% Protein Rodent Diet™; Harlan Teklad, Madison Wis.) were either treated or not with DAC. To test the effect of genistein in the diet, mice were fed with 2016 diet supplemented with 0.5% genistein (Harlan Teklad) and treated with either DAC or the vehicle alone. Mice were acclimated to the genistein-enriched regimen over a 10-days period before injection of leukemic cells. A Harvard apparatus compact infusion pump was used at a flow rate of 0.22 ml/h via 25-gauge needle into the lateral tail vein. DAC was given at 2 mg/kg for 8 h. Decitabine was prepared fresh before each experiment, dissolved in ½ PBS and sterilized by 0.2 μm filtration. Mice were placed in a restrainer cage during treatment with access to food. Toxicity was evaluated by body weight loss. Mice fed with genistein-enriched diet kept the same regimen during all the experiment. The survival time of each group of mice was monitored and the increased in life span (ILS) calculated.
Statistical analyses. In order to evaluate whether the inter-group variations were random, one-way ANOVA testing was performed. The p value was evaluated accordingly to Tukey's method (Hastings, C et al. (1947). Ann. Math. Statist. 18,413-426). A p value≦0.05 was taken for statistical significance. Valeriote and Lin's method (Valeriote, F and Lin, H. S. 1975. Cancer Chemother. Rep. 59(5): 895-900) was used to determine if the interaction observed between drugs in the clonogenic assays was additive, synergistic or antagonistic.

[3] = tested on: L1210 leukemic cells; assay: Survival of CD2F1 mice bearing L1210 leukemia; format: in vivo; conditions: i.v. 10^4 L1210 cells; for Increase in life span (%): 0.5% genistein in diet and/or DAC 2 mg/kg 8 h i.v. infusion on day 1
Procedure: as §4, with “For transplantation of leukemia cells in mice, intraperitonal (i.p.) injections of 10^4 L1210 or L1210/ARAC cells in RPMI-1640 medium were performed weekly into the CD2F1 mice.” left out, “Control groups that received the control diet 2016 (Teklad Global 16% Protein Rodent Diet™; Harlan Teklad, Madison Wis.) were either treated or not with DAC. To test the effect of genistein in the diet, mice were fed with 2016 diet supplemented with 0.5% genistein (Harlan Teklad) and treated with either DAC or the vehicle alone.” left out
Statistical analyses. In order to evaluate whether the inter-group variations were random, one-way ANOVA testing was performed. […] A p value≦0.05 was taken for statistical significance.

[4] = tested on: human lung carcinoma cell line (CALU-6); assay: Colony formation assay, CALU-6; format: cell-based
Procedure: as §1, with “atmosphere. […]” for “atmosphere.”
For human lung carcinoma H2087 cells, 100 cells were placed in wells of a 6-well dish (day 0); for Calu-6, MBA-MD-231 and Dld-1, 200 cells were seeded. […] Fresh medium (2 ml) was added and after 16-19 d colonies were stained with 0.5% methylene blue in 50% methanol and counted. […] The experiments were repeated three times and expressed as mean±S.D or mean±SEM for Calu-6, MBA-MD-231 and Dld-1 cells.
as §3

[5] = tested on: MOLT-3 lymphoid human leukemic cells; assay: Inhibition/loss of clonogenicity in soft agar, MOLT-3; format: cell-based; conditions: 48 h
Procedure: as §1
(§5) Genistein (LC Laboratories, Woburn, Mass.) was dissolved in DMSO (Sigma, Oakville, Ontario) to prepare stock solutions of 2 and 20 mM and kept frozen at −20° C. until use. Decitabine (DAC, Dacogen™, 5-aza-2′-deoxycytidine) at 1000 μg/ml in PBS was kept at −80° C. […]
(§6) Inhibition of clonogenicity. […] After 7 d of incubation for murine cell lines or 15 d for human cell lines, the number of colonies (>50 cells) was counted. […] The experiments were repeated three times and expressed as mean±S.E.M.
as §3

[6] = tested on: H2087 lung carcinoma cells; assay: Colony formation assay, H2087; format: cell-based, human; conditions: decitabine 220 nM and/or genistein 5 μM, 24 h, mean ± S.D., relative to untreated cells
Procedure: as §1, §2
For human lung carcinoma H2087 cells, 100 cells were placed in wells of a 6-well dish (day 0); for Calu-6, MBA-MD-231 and Dld-1, 200 cells were seeded. On day 1, Decitabine (50 ng/ml) and genistein (5 μM) were added concomitantly to the cells for 24 h. Drugs were then removed and wells were rinsed with 1 ml of medium. Fresh medium (2 ml) was added and after 16-19 d colonies were stained with 0.5% methylene blue in 50% methanol and counted. The inhibition/loss of clonogenicity (%) was expressed relative to control (untreated) cells. The experiments were repeated three times and expressed as mean±S.D or mean±SEM for Calu-6, MBA-MD-231 and Dld-1 cells.
as §3

[7] = tested on: HL-60 myeloid human leukemic cells; assay: Inhibition/loss of clonogenicity in soft agar, HL-60; format: cell-based; conditions: 48 h
Procedure: as §1, §5, §6, §3

[8] = tested on: L1210/ARAC cells (DAC-resistant clone of L1210); assay: Inhibition/loss of clonogenicity in soft agar, L1210/ARAC; format: cell-based, murine; conditions: alone or with DAC 4.4 nM
Procedure: as §1, with “The doubling time of the L1210/ARAC cells was about 12 h. Human lung adenocarcinoma cells H2087, and Calu-6 non-small cell lung cancer cells, were obtained from ATCC (ATCC #: CRL-5922; Manassas, Va. USA) and cultured in DMEM and RPMI without HEPES, respectively. The cells were trypsinized with 0.25% Trypsin-EDTA (Invitrogen, Grand Island, N.Y.). The doubling time of the H2087 cells was about 35 h. Cell lines were incubated at 37° C. in 5% CO2 atmosphere.” left out
as §6, §3

[9] = DAC 44 nM alone, relative to control cells
[10] = genistein 0.1 μM, alone or with DAC 44 nM
[11] = genistein 1 μM, alone or with DAC 44 nM

Nc1ncn([C@H]2C[C@H](O)[C@@H](CO)O2)c(=O)n1 [DAC, 4-Amino-1-(2-deoxy-β-D-ribofuranosyl)-1,3,5-triazin-2(1H)-one, reference compound]
loss of clonogenicity ([1]; DAC 4.4 nM alone, relative to control cells): 28% | loss of clonogenicity ([1]; DAC 4.4 nM alone, relative to control cells, listed as Decitabine): about 30% | Increase in life span (%) [2]: −2.3% | Survival time [2]: 9.42 ± 0.50 days | Increase in life span (%) [3]: 66.8% | Loss of clonogenicity (%) ([4]; decitabine 10 ng/ml alone): 36.6% | loss of clonogenicity [5, 9]: 40% and 37% | Loss of clonogenicity (%) [6]: 60% | Loss of clonogenicity (%) ([6]; listed as Decitabine): 60 ± 4.1% | loss of clonogenicity [7, 9]: 20% and 17%

O=c1c(-c2ccc(O)cc2)coc2cc(O)cc(O)c12 [genistein]
loss of clonogenicity ([1]; genistein 0.1 μM, alone or with DAC 4.4 nM): 2% | loss of clonogenicity ([1]; genistein 1 μM, alone or with DAC 4.4 nM): 13% | loss of clonogenicity ([8]; genistein 0.1 μM): 2% | loss of clonogenicity ([8]; genistein 1 μM): 11% | Increase in life span (%) [2]: 7.88% | Survival time [2]: 10.39 ± 1.01 days | Increase in life span (%) [3]: 7.0. (p < 0.001) % | survival time after injection of leukemia ([3]; 0.5% genistein-enriched diet): 7.85 ± 0.10 days | Loss of clonogenicity (%) ([4]; genistein 0.1 μM, alone or with decitabine 10 ng/ml): 4.9% | Loss of clonogenicity (%) ([4]; genistein 10 μM, alone or with decitabine 10 ng/ml): 31.7% | loss of clonogenicity [5, 10]: 1% | loss of clonogenicity [5, 11]: 12% | Loss of clonogenicity (%) [6]: 3.8% | Loss of clonogenicity (%) ([6]; listed as Genistein): 3.8 ± 9.4% | loss of clonogenicity [7, 10]: 1% | loss of clonogenicity [7, 11]: 15%
